# Measurements: patent publication US8895695B2, “Template-fixed beta-hairpin peptidomimetics with CXCR4 antagonizing activity” (priority 2003, dated 2014)
# Assay: Pharmacokinetic study (PK) after single i.v. and i.p. administration
# Format: in vivo, male CD-1 mice
# Protocol: 2.9. Pharmacokinetic Study (PK)
# 30 grams (±20%) male CD-1 mice obtained from Charles River Laboratories Deutschland GmbH were used in the study. The vehicle, physiological saline, was added to give a final concentration of 1 mg/ml of the compounds. […] Approximately 250-300 μl of blood was removed under light isoflurane anesthesia from the retro-orbital plexus at predetermined time intervals (0, 5, 15, 30 min and 1, 2 and 3 hours for the i.v. study and 0, 15, 30 min and 1, 2, 4 and 8 hours for the i.p. study) and added to heparinized tubes. Plasma was removed from pelleted cells upon centrifugation and frozen at −80° C. prior to HPLC-MS analysis.
# Preparation of the Plasma Calibration Samples
# “Blank” mouse plasma from untreated animals was used. […] The OASIS® HLB cartridges were conditioned with 1 ml of methanol and then with 1 ml of 1% NH3 in water. Samples were then diluted with 700 μl of 1% NH3 in water and loaded.
# The plate was washed with 1 ml of methanol/1% NH3 in water 5/95. Elution was performed using 1 ml of 0.1% TFA in methanol.
# The plate containing eluates was introduced into the concentrator system and taken to dryness. The residues were dissolved in 100 μL of formic acid 0.1%/acetonitrile, 95/5 (v/v) and analysed in the HPLC/MS on a reverse phase analytical column (Jupiter C18, 50×2.0 mm, 5 μm, Phenomenex), using gradient elution (mobile phases A: 0.1% formic acid in water, B: Acetonitrile; from 5% B to 100% B in 2 min.).
# Preparation of Plasma Samples
# Samples coming from animal treatments were pooled in order to obtain an appropriate volume for the extraction. If the total volume obtained was less than 0.2 ml the appropriate amount of “blank” mouse plasma was added in order to keep the matrix identical to the calibration curve. Samples were than spiked with IS and processed as described for the calibration curve.
# Pharmacokinetic Evaluation
# PK analysis was performed on pooled data (generally n=2 or 3) using the software PK solutions 2.0™ (Summit Research Service, Montrose, Colo. 81401 USA). The area under the curve AUC was calculated by the linear trapezoidal rule. AUC(t-∞) was estimated as Ct/b (b: elimination rate constant). […] the sum of AUC(0-t) and AUC(t-∞). Elimination half-life was calculated by the linear regression on at least three data points during the elimination phase. The time intervals selected for the half-life determinations were evaluated by the correlation coefficient (r^2), which should be at least above 0.85 and most optimally above 0.96. In case of i.v. administration the initial concentration at tzero was determined by extrapolation of the curve through the first two time points. Finally bioavailability after i.p. administration was calculated from the normalised AUC(0-∞) ration after i.p. versus i.v. administration.
# [1] = male, CD-1, mouse, in vivo, ip, 10 mg/kg
# [2] = male, CD-1, mouse, in vivo, iv, 2 mg/kg
smiles,measurement,setting,value
N=C(N)NCCC[C@@H]1NC(=O)[C@@H]2CSSC[C@H](NC(=O)[C@H](Cc3ccc4ccccc4c3)NC(=O)[C@H](CCCNC(=N)N)NC(=O)[C@H](CCCNC(=N)N)NC(=O)[C@H]3CCCN3C(=O)CNC1=O)C(=O)N[C@@H](Cc1ccc(O)cc1)C(=O)N[C@@H](CCCNC(N)=O)C(=O)N[C@@H](CCCCN)C(=O)N1CCC[C@@H]1C(=O)N1CCC[C@H]1C(=O)N[C@@H](Cc1ccc(O)cc1)C(=O)N[C@@H](CCCNC(=N)N)C(=O)N[C@@H](CCCNC(N)=O)C(=O)N2 [Ex. 51],times lower normalised Cmax after i.p. administration versus i.v.,"i.p. 10 mg/kg versus i.v. 2 mg/kg, mouse",45 times
same,AUC,[1],1300 ng·h/mL
same,AUC(0-inf),[1],12900 ng·h/mL
same,AUC(0-t),[1],11100 ng·h/mL
same,Tmax,[1],2 h
same,half-life,[1],2.5 h
same,level at 0.25 h,[1],673 ng/mL
same,level at 0.5 h,[1],1570 ng/mL
same,level at 1 h,[1],2010 ng/mL
same,level at 2 h,[1],3160 ng/mL
same,level at 4 h,[1],1020 ng/mL
same,level at 8 h,[1],519 ng/mL
same,Cmax,"male, CD-1, mouse, in vivo, ip, 10 mg/kg, Cmax ng/ml",3160 ng/mL
same,Cmax,"male, CD-1, mouse, in vivo, ip, 10 mg/kg, Cmax norm.",316 ng/mL
same,AUC,[2],953 ng·h/mL
same,AUC(0-inf),[2],1900 ng·h/mL
same,AUC(0-t),[2],1700 ng·h/mL
same,Tmax,[2],0 h
same,half-life,[2],2.8 h
same,level at 0.083 h,[2],1460 ng/mL
same,level at 0.25 h,[2],328 ng/mL
same,level at 0.5 h,[2],300 ng/mL
same,level at 1 h,[2],80 ng/mL
same,level at 2 h,[2],68 ng/mL
same,level at 3 h,[2],49 ng/mL
same,Cmax,"male, CD-1, mouse, in vivo, iv, 2 mg/kg, Cmax ng/ml (extrapolated Cinitial)",28600 ng/mL
same,Cmax,"male, CD-1, mouse, in vivo, iv, 2 mg/kg, Cmax observed",1460 ng/mL
same,% absorbed (F) (percentage of normalized AUC0-inf. intraperitoneal against normalized AUC0-inf i.v.),"mouse, in vivo, 2 mg/kg",100%
same,% absorbed (F) (percentage of normalized AUC0-inf. intraperitoneal against normalized AUC0-inf i.v.),"mouse, in vivo, 10 mg/kg",136%
same,β,"mouse, in vivo, ip, 10 mg/kg",0.28 h⁻¹
same,β,"mouse, in vivo, iv, 2 mg/kg",0.24 h⁻¹
